# Test system: GNS166 cells
# Assay: Microarray whole-transcriptome gene expression analysis
# Type: cell-based, human
# Conditions: 5 µM SAHA vs DMSO
# Method: Whole-transcriptome analysis was performed from 300 ng of RNA using HuGene-2_0-st-v1 expression array (Affymetrix), which covers 48,226 transcripts. Raw data were first checked for quality purposes through the Affymetrix® Expression Console™ Software v1.4.1 and TAC software v4.0. Then, data were normalized using the Robust Multi-array Average (RMA) and analyzed by Limma tool. Probesets with FDR-corrected p-values smaller than 0.05 were selected. Functional enrichment on Gene Ontology (GO) biological processes was performed on a smaller subset of the differentially expressed genes (corrected p-value < 0.001) by means of Broad Institute GSEA. […] The data that support this study have been deposited in NCBI´s Gene Expression Omnibus and are accessible through GEO series accession number GSE143887.
smiles,measurement,setting,value
"O=C(CCCCCCC(=O)Nc1ccccc1)NO [SAHA, Suberoylanilide hydroxamic acid]",logFC C4orf32,transcript TC0400008424.hg.1,1.313
same,logFC USP53,transcript TC0400008557.hg.1,1.38
same,logFC SPRY1,transcript TC0400008628.hg.1,1.671
same,logFC PCDH10,transcript TC0400008725.hg.1,3.614
same,logFC LRAT,transcript TC0400009068.hg.1,2.43
same,logFC GUCY1B3,transcript TC0400009088.hg.1,2.131
same,logFC GRIA2,transcript TC0400009110.hg.1,2.789
same,logFC WDR17,transcript TC0400009376.hg.1,2.897
same,logFC TLR10,transcript TC0400010449.hg.1,2.282
same,logFC TEC,transcript TC0400010618.hg.1,1.822
same,logFC SPINK2,transcript TC0400010780.hg.1,1.664
same,logFC PAQR3,transcript TC0400011130.hg.1,1.64
same,logFC HPSE,transcript TC0400011203.hg.1,1.993
same,logFC ABCG2,transcript TC0400011279.hg.1,2.81
same,logFC NDNF,transcript TC0400011732.hg.1,1.962
same,logFC CBR4,transcript TC0400012375.hg.1,2.0355
same,logFC CCDC110,transcript TC0400012640.hg.1,2.964
same,logFC STIM2,transcript TC0400012781.hg.1,2.698
same,logFC STIM2,transcript TC0400012782.hg.1,1.4133
same,logFC TMEM144,transcript TC0400012854.hg.1,1.56
same,logFC MFAP3L,transcript TC0400012992.hg.1,1.287
same,logFC ROPN1L,transcript TC0500006744.hg.1,1.559
same,logFC CDH6,transcript TC0500007044.hg.1,1.462
same,logFC HEXB,transcript TC0500007792.hg.1,1.236
same,logFC ADGRV1,transcript TC0500008055.hg.1,1.802
same,logFC C5orf30,transcript TC0500008233.hg.1,1.583
same,logFC ACTBL2,transcript TC0500010822.hg.1,3.506
same,logFC SGTB,transcript TC0500010932.hg.1,1.8638
same,logFC MEF2C,transcript TC0500011418.hg.1,3.2962
same,logFC PCSK1,transcript TC0500011513.hg.1,2.7195
same,logFC ST8SIA4,transcript TC0500011579.hg.1,2.463
same,logFC NREP,transcript TC0500011705.hg.1,1.704
same,logFC SEMA6A,transcript TC0500011775.hg.1,1.39
same,logFC MARCH3,transcript TC0500011935.hg.1,1.4429
same,logFC BASP1,transcript TC0500013155.hg.1,2.0101
same,logFC BMP6,transcript TC0600006873.hg.1,2.494
same,logFC CD83,transcript TC0600007012.hg.1,1.54
same,logFC SLC25A27,transcript TC0600008166.hg.1,2.967
same,logFC TMEM14A,transcript TC0600008262.hg.1,1.194
same,logFC OGFRL1,transcript TC0600008486.hg.1,1.1708
same,logFC TPD52L1,transcript TC0600009353.hg.1,1.7761
same,logFC KIAA0319,transcript TC0600011065.hg.1,1.327
same,logFC GSTA4,transcript TC0600012059.hg.1,1.152
same,logFC ELOVL4,transcript TC0600012379.hg.1,1.597
same,logFC GPR63,transcript TC0600012625.hg.1,1.5628
same,logFC CTGF,transcript TC0600013186.hg.1,1.2152
same,logFC SGK1,transcript TC0600013231.hg.1,2.01
same,logFC CITED2,transcript TC0600013361.hg.1,1.453
same,logFC MICA,transcript TC0600014101.hg.1,1.308
same,logFC TBC1D7,transcript TC0600014241.hg.1,1.745
same,logFC GCLC,transcript TC0600014300.hg.1,1.594
same,logFC SCIN,transcript TC0700006735.hg.1,1.966
same,logFC TSPAN13,transcript TC0700006783.hg.1,2.267
same,logFC RUNDC3B,transcript TC0700008261.hg.1,2.108
same,logFC PEG10,transcript TC0700008367.hg.1,1.87
same,logFC SDHAF3,transcript TC0700008430.hg.1,2.085
same,logFC CPED1,transcript TC0700008928.hg.1,1.813
same,logFC FKBP14,transcript TC0700010621.hg.1,1.44
same,logFC IGFBP3,transcript TC0700010965.hg.1,3.673
same,logFC PCLO,transcript TC0700011655.hg.1,1.736
same,logFC TFPI2,transcript TC0700011809.hg.1,1.387
same,logFC DOCK4,transcript TC0700012276.hg.1,2.262
same,logFC KCNH2,transcript TC0700013050.hg.1,1.762
same,logFC DOCK5,transcript TC0800007057.hg.1,2.096
same,logFC CHCHD7,transcript TC0800007697.hg.1,1.373
same,logFC GDAP1,transcript TC0800007985.hg.1,1.791
same,logFC STMN2,transcript TC0800008044.hg.1,3.942
same,logFC CA3,transcript TC0800008124.hg.1,3.677
same,logFC CA2,transcript TC0800008126.hg.1,1.801
same,logFC STC1,transcript TC0800009891.hg.1,3.859
same,logFC TEX15,transcript TC0800010045.hg.1,3.073
same,logFC ZMAT4,transcript TC0800010224.hg.1,2.513
same,logFC ENPP2,transcript TC0800011620.hg.1,1.943
same,logFC FBXO16,transcript TC0800012396.hg.1,1.919
same,logFC SLC1A1,transcript TC0900006522.hg.1,1.427
same,logFC CD274,transcript TC0900006559.hg.1,1.67
same,logFC ZNF483,transcript TC0900008425.hg.1,1.1693
same,logFC OLFM1,transcript TC0900009145.hg.1,2.218
same,logFC MLLT3,transcript TC0900009673.hg.1,1.64
same,logFC NMRK1,transcript TC0900010445.hg.1,1.539
same,logFC DIRAS2,transcript TC0900010737.hg.1,1.619
same,logFC CTSV,transcript TC0900010933.hg.1,2.165
same,logFC MEGF9,transcript TC0900011379.hg.1,1.37
same,logFC PHYHIPL,transcript TC1000007714.hg.1,2.12
same,logFC SFR1,transcript TC1000008798.hg.1,1.8477
same,logFC VIM-AS1,transcript TC1000009920.hg.1,1.211
same,logFC DNAJC12,transcript TC1000010827.hg.1,2.378
same,logFC CPEB3,transcript TC1000011420.hg.1,1.535
same,logFC MPP7,transcript TC1000012536.hg.1,1.855
